Tested on: human visceral preadipocytes
Assay: in vitro
Protocol: Human visceral preadipocytes were seeded in 96-well white clear bottom plates at 10,000 cells per well in 100 μl pre-adipocyte medium and incubated overnight at 37° C. 5% CO2. On the following day, adipogenic differentiation was induced by addition of 100 μl/well differentiation medium and incubation continued for 5 days. Adipogenic differentiation was verified by microscopic evaluation, addition of adipored reagents and fluorescent measurement at Ex485 nm/Em572 nm. […] Staurosporine (1 μM) and 0.2% DMSO were used as controls. Plates were incubated at 37° C. 5% CO2 for 2, 6 and 24 hours. Following incubation, cytotoxicity was measured using Cell Titer Glo 2.0 (Promega).
Test Item RZL-12 (1-300 μM) was prepared on the day of the testing as 150 mM stock solutions in DMSO. The 150 mM represents a 500×stock of the highest desired tested concentration. The 150 mM stock solution was first serially diluted in DMSO to acquire 500×stock solutions for each of the RZL-012 concentrations. The 500×stock solutions were then diluted 1:25 in medium to acquire 20×intermediate stock solutions. Finally, the 20×intermediate stock solutions were further diluted 1:20 in the assay (on the plate) that included seeded cells.
The 600 μM represents a 20× stock of the highest desired tested concentration. […] Finally, the 20×intermediate stock solutions were further diluted 1:20 in the assay plate that included seeded cells.
Human visceral pre-adipocytes (HPrAD-vis): HPrAD-vis cells (Lonza cat #PT-5005) were thawed at 37° C. and transferred into 50 ml tubes containing pre-adipocytes PGM-2 growth medium (PBM-2, 10% FBS, 1-glutamine, GA-1000). Cells were centrifuged at 300 g for 10 minutes, the supernatant was removed (Leaving about 1 ml of wash medium for not disrupting the cells) and 2 ml fresh PGM-2 medium was added. After resuspension, cells were counted and seeded in T-75 and T25 flasks at a density of 9,000 cells/cm^2 ([…], 225,000 cells/T25 flask). Medium was changed every 2-3 days until reached confluence of 70%.
Cells were sub-cultured only once, as soon as they reached 70% confluence. For this purpose, the culture medium of each flask was removed and cells were washed once with 5 ml PBS. The flask was shaken to ensure that the entire surface was covered and the PBS was removed. Then, 3 ml/T75 flask or 1 ml/T25 flask of fresh dedicated Trypsin/EDTA solution (from Lonza) was added and the flasks were incubated for 3-4 minutes at RT until ˜90% cells were detached. The Trypsin/EDTA solution was then neutralized by addition of 6 ml/T75 flask or 3 ml/T25 flask of full PGM-2 growth medium. Cells were collected in 50 ml tubes and centrifuged 10 minutes at 300 g. The supernatant was removed and the cells were resuspended in 3 ml fresh medium. Cells were then counted using a haemacytometer slide after being diluted 1:2 in trypan blue (SIGMA). For sub-culturing, cells were seeded in new T75 flasks at a density of 9,000 cells/cm^2 containing 15 ml fresh growth medium. Alternatively, the cells were seeded in 96-well culture plates at a density of 10,000 cells/well for the cell treatments.
HPrAD-vis cells: HPrAD-vis passaged once were seeded in 96-well plates as described above (10000cells/well in 100 μl medium) and allowed to settle overnight at 37° C., 5% CO2. Following day, adipogenic differentiation was induced by addition of 100 μl/well differentiation medium and incubated for 5 days. Adipogenic differentiation was verified by microscopic evaluation, addition of adipored reagents and fluorescent measurement at Ex485 nm/Em572 nm. In the morning of day 6, test and reference items were prepared as described above. Cells' medium was replaced with 90 μl fresh differentiation medium. […] Staurosporine (1 μM) and 0.2% DMSO were used as controls. Plates were incubated at 37° C. 5% CO2 for 2, 6 and 24 hours. Following incubation, cell viability was determined using the CellTiter-Gg® viability reagent (Promega) with reading of plates for luminescence. […]

C[N+](C)(C)CCCCCn1c2ccc(Br)cc2c2cc(Br)ccc21.[Cl-] [RZL-012, 5-(3,6-dibromo-9H-carbazol-9-yl)-N,N,N-trimethylpentan-1-aminium chloride]
Average RZL-012 and collagenase induced cell death (% vs untreated cells) (RZL12 10 μM, Collagenase 0, 2 h of incubation): 10.4% | Average RZL-012 and collagenase induced cell death (% vs untreated cells) (RZL12 10 μM, Collagenase 0, 24 h of incubation): 12.80% | Average RZL-012 and collagenase induced cell death (% vs untreated cells) (RZL12 10 μM, Collagenase 0.1 μM, 2 h of incubation): 4.9% | Average RZL-012 and collagenase induced cell death (% vs untreated cells) (RZL12 10 μM, Collagenase 0.1 μM, 24 h of incubation): 9.43% | Average RZL-012 and collagenase induced cell death (% vs untreated cells) (RZL12 10 μM, Collagenase 0.3 μM, 2 h of incubation): 5.0% | Average RZL-012 and collagenase induced cell death (% vs untreated cells) (RZL12 10 μM, Collagenase 0.3 μM, 24 h of incubation): 5.50% | Average RZL-012 and collagenase induced cell death (% vs untreated cells) (RZL12 10 μM, Collagenase 1 μM, 2 h of incubation): 7.8% | Average RZL-012 and collagenase induced cell death (% vs untreated cells) (RZL12 10 μM, Collagenase 1 μM, 24 h of incubation): 16.08% | Average RZL-012 and collagenase induced cell death (% vs untreated cells) (RZL12 10 μM, Collagenase 3 μM, 2 h of incubation): 17.7% | Average RZL-012 and collagenase induced cell death (% vs untreated cells) (RZL12 10 μM, Collagenase 3 μM, 24 h of incubation): 33.99% | Average RZL-012 and collagenase induced cell death (% vs untreated cells) (RZL12 10 μM, Collagenase 10 μM, 2 h of incubation): 22.3% | Average RZL-012 and collagenase induced cell death (% vs untreated cells) (RZL12 10 μM, Collagenase 10 μM, 24 h of incubation): 65.12% | Average RZL-012 and collagenase induced cell death (% vs untreated cells) (RZL12 10 μM, Collagenase 30 μM, 2 h of incubation): 45.0% | Average RZL-012 and collagenase induced cell death (% vs untreated cells) (RZL12 10 μM, Collagenase 30 μM, 24 h of incubation): 80.04% | Average RZL-012 and collagenase induced cell death (% vs untreated cells) (RZL12 30 μM, Collagenase 0, 2 h of incubation): 50.4% | Average RZL-012 and collagenase induced cell death (% vs untreated cells) (RZL12 30 μM, Collagenase 0, 24 h of incubation): 72.72% | Average RZL-012 and collagenase induced cell death (% vs untreated cells) (RZL12 30 μM, Collagenase 0.1 μM, 2 h of incubation): 43.8% | Average RZL-012 and collagenase induced cell death (% vs untreated cells) (RZL12 30 μM, Collagenase 0.1 μM, 24 h of incubation): 28.35% | Average RZL-012 and collagenase induced cell death (% vs untreated cells) (RZL12 30 μM, Collagenase 0.3 μM, 2 h of incubation): 35.0% | Average RZL-012 and collagenase induced cell death (% vs untreated cells) (RZL12 30 μM, Collagenase 0.3 μM, 24 h of incubation): 23.76% | Average RZL-012 and collagenase induced cell death (% vs untreated cells) (RZL12 30 μM, Collagenase 1 μM, 2 h of incubation): 45.8% | Average RZL-012 and collagenase induced cell death (% vs untreated cells) (RZL12 30 μM, Collagenase 1 μM, 24 h of incubation): 31.37% | Average RZL-012 and collagenase induced cell death (% vs untreated cells) (RZL12 30 μM, Collagenase 3 μM, 2 h of incubation): 49.7% | Average RZL-012 and collagenase induced cell death (% vs untreated cells) (RZL12 30 μM, Collagenase 3 μM, 24 h of incubation): 79.97% | Average RZL-012 and collagenase induced cell death (% vs untreated cells) (RZL12 30 μM, Collagenase 10 μM, 2 h of incubation): 33.2% | Average RZL-012 and collagenase induced cell death (% vs untreated cells) (RZL12 30 μM, Collagenase 10 μM, 24 h of incubation): 83.68% | Average RZL-012 and collagenase induced cell death (% vs untreated cells) (RZL12 30 μM, Collagenase 30 μM, 2 h of incubation): 46.0% | Average RZL-012 and collagenase induced cell death (% vs untreated cells) (RZL12 30 μM, Collagenase 30 μM, 24 h of incubation): 90.00% | Average RZL-012 and collagenase induced cell death (% vs untreated cells) (RZL12 100 μM, Collagenase 0, 2 h of incubation): 99.7% | Average RZL-012 and collagenase induced cell death (% vs untreated cells) (RZL12 100 μM, Collagenase 0, 24 h of incubation): 99.89% | Average RZL-012 and collagenase induced cell death (% vs untreated cells) (RZL12 100 μM, Collagenase 0.1 μM, 2 h of incubation): 99.5% | Average RZL-012 and collagenase induced cell death (% vs untreated cells) (RZL12 100 μM, Collagenase 0.1 μM, 24 h of incubation): 99.66% | Average RZL-012 and collagenase induced cell death (% vs untreated cells) (RZL12 100 μM, Collagenase 0.3 μM, 2 h of incubation): 99.3% | Average RZL-012 and collagenase induced cell death (% vs untreated cells) (RZL12 100 μM, Collagenase 0.3 μM, 24 h of incubation): 99.60% | Average RZL-012 and collagenase induced cell death (% vs untreated cells) (RZL12 100 μM, Collagenase 1 μM, 2 h of incubation): 98.9% | Average RZL-012 and collagenase induced cell death (% vs untreated cells) (RZL12 100 μM, Collagenase 1 μM, 24 h of incubation): 99.65% | Average RZL-012 and collagenase induced cell death (% vs untreated cells) (RZL12 100 μM, Collagenase 3 μM, 2 h of incubation): 97.4% | Average RZL-012 and collagenase induced cell death (% vs untreated cells) (RZL12 100 μM, Collagenase 3 μM, 24 h of incubation): 99.89% | Average RZL-012 and collagenase induced cell death (% vs untreated cells) (RZL12 100 μM, Collagenase 10 μM, 2 h of incubation): 72.4% | Average RZL-012 and collagenase induced cell death (% vs untreated cells) (RZL12 100 μM, Collagenase 10 μM, 24 h of incubation): 99.92% | Average RZL-012 and collagenase induced cell death (% vs untreated cells) (RZL12 100 μM, Collagenase 30 μM, 2 h of incubation): 76.4% | Average RZL-012 and collagenase induced cell death (% vs untreated cells) (RZL12 100 μM, Collagenase 30 μM, 24 h of incubation): 99.99% | Average RZL-012 and collagenase induced cell death (% vs untreated cells) (RZL12 300 μM, Collagenase 0, 2 h of incubation): 99.9% | Average RZL-012 and collagenase induced cell death (% vs untreated cells) (RZL12 300 μM, Collagenase 0, 24 h of incubation): 100.00% | Average RZL-012 and collagenase induced cell death (% vs untreated cells) (RZL12 300 μM, Collagenase 0.1 μM, 2 h of incubation): 99.6% | Average RZL-012 and collagenase induced cell death (% vs untreated cells) (RZL12 300 μM, Collagenase 0.1 μM, 24 h of incubation): 99.67% | Average RZL-012 and collagenase induced cell death (% vs untreated cells) (RZL12 300 μM, Collagenase 0.3 μM, 2 h of incubation): 99.6% | Average RZL-012 and collagenase induced cell death (% vs untreated cells) (RZL12 300 μM, Collagenase 0.3 μM, 24 h of incubation): 99.74% | Average RZL-012 and collagenase induced cell death (% vs untreated cells) (RZL12 300 μM, Collagenase 1 μM, 2 h of incubation): 99.1% | Average RZL-012 and collagenase induced cell death (% vs untreated cells) (RZL12 300 μM, Collagenase 1 μM, 24 h of incubation): 99.96% | Average RZL-012 and collagenase induced cell death (% vs untreated cells) (RZL12 300 μM, Collagenase 3 μM, 2 h of incubation): 96.6% | Average RZL-012 and collagenase induced cell death (% vs untreated cells) (RZL12 300 μM, Collagenase 3 μM, 24 h of incubation): 99.76% | Average RZL-012 and collagenase induced cell death (% vs untreated cells) (RZL12 300 μM, Collagenase 10 μM, 2 h of incubation): 89.2% | Average RZL-012 and collagenase induced cell death (% vs untreated cells) (RZL12 300 μM, Collagenase 10 μM, 24 h of incubation): 99.82% | Average RZL-012 and collagenase induced cell death (% vs untreated cells) (RZL12 300 μM, Collagenase 30 μM, 2 h of incubation): 89.5% | Average RZL-012 and collagenase induced cell death (% vs untreated cells) (RZL12 300 μM, Collagenase 30 μM, 24 h of incubation): 100.01% | concentrations at which the cytotoxic effect was observed (at all time points (2, 6, 24 h)): > 30 µM

From patent US20240041827A1, “COMPOSITIONS FOR THE TREATMENT OF FAT RELATED CONDITIONS AND DISORDERS” (priority 2020, published 2024)
